Where “and” joins values, the source holds several entries; their conditions need not be identical. Identical values can stand only once.
Columns and labels:
[1] = biological target: T1, SMARCA2/4 (Homo sapiens, UniProt P51532); assay: SMARCA2/4 half-life (cycloheximide) and re-synthesis after compound 6 and VHL binder in HCT116 and RKO; format: cell-based; conditions: for K (one phase exponential decay) / Tau (one phase exponential decay): CHX
T1 construct: endogenous in cells; host or cells: HCT116, RKO
T1 sequence (P51532 whole entry): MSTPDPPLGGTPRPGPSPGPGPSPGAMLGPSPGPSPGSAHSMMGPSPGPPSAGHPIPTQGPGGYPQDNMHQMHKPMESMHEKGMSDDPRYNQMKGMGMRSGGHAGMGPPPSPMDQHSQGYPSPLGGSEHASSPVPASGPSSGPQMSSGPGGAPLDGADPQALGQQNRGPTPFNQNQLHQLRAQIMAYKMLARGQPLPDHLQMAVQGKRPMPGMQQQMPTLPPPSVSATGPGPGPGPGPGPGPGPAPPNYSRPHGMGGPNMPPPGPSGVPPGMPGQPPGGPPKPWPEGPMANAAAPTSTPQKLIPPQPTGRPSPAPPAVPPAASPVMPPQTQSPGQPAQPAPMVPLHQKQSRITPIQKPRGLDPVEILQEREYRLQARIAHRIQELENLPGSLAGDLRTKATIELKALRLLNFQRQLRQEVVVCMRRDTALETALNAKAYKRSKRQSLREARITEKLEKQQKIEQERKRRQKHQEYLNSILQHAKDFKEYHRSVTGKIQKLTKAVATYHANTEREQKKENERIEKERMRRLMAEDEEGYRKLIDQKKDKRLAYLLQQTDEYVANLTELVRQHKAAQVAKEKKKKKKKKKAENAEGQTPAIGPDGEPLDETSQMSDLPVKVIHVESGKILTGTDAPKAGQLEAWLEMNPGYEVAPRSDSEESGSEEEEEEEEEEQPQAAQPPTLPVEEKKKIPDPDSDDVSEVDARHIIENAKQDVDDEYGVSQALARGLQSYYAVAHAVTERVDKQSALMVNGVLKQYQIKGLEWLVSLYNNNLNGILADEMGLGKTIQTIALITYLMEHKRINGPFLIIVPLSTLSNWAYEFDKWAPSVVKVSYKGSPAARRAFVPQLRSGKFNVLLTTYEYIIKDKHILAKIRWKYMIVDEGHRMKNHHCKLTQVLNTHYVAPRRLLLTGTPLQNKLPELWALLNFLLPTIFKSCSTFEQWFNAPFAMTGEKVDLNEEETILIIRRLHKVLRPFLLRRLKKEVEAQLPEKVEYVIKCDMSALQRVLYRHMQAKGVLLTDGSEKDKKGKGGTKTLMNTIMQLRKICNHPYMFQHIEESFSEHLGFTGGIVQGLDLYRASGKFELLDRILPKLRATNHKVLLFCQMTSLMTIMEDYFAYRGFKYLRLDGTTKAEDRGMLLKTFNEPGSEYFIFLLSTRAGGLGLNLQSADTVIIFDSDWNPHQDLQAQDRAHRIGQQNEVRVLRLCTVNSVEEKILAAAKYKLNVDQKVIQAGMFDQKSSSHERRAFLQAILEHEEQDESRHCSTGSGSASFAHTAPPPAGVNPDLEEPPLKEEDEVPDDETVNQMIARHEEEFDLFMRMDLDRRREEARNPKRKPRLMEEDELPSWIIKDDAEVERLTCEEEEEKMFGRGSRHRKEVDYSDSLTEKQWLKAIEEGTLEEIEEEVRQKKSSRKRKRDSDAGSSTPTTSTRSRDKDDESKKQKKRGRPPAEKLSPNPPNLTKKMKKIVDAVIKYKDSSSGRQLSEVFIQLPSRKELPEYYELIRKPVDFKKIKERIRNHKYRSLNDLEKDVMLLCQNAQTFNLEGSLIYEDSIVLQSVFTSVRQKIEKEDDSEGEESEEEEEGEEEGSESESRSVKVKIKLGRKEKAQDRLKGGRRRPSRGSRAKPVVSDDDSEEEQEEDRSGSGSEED
Protocol: (§1) 130,000–200,000 cells were seeded in 24-well plates and incubated until settled down or overnight. Compounds were dissolved in DMSO and added to cells in indicated concentrations using a digital dispenser following an optional media change. […] For SMARCA2/4 half-life determination, 150,000 or 200,000 cells were seeded in 24-well plates. […] For SMARCA2/4 re-synthesis measurements, 200,000 cells were seeded in 24-well plates. The next day, 100 nM compound 6 was added for 4 h to degrade SMARCA2/4, and a sample was taken as baseline for normalisation. […] Medium was removed, cells were washed with PBS and lysed with 80 µl Lysis Buffer (MSD Tris Lysis Buffer (#R60TX-2) + Halt Inhibitor Cocktail (100x) + Benzonase 0.5 µL/ml). Samples were frozen at −80 °C and thawed at room temperature before use. Samples were transferred to a V-bottom plate and insoluble debris was pelleted by centrifugation for 5 min at maximum speed. The supernatant was transferred to a fresh plate. Master Mix and Ladder were prepared according to manufacturer’s instructions for 12–230 kDa Wes Separation Module, 8 × 25 capillary cartridges, Protein Simple #SM-W004 with Anti-Rabbit Detection Module for Wes, Peggy Sue or Sally Sue, Protein Simple #DM-001. 4.8 µl lysate were mixed with 1.2 µl Master Mix to achieve a protein concentration of ~0.5 µg/µl. Antibodies were diluted in Antibody Diluent II (SMARCA2 Sigma #HPA029981 RRID:AB_10602406 1:25–100, SMARCA4 Cell Signalling #49360 clone D1Q7F RRID:AB_2728743 1:15–120 or Abcam #ab110641 clone EPNCIR111A RRID:AB_10861578 1:60, GAPDH Abcam #ab9485 RRID:AB_307275 1:250). Wes plates were prepared and run according to manufacturer’s instructions. Proteins were quantified with accompanying Compass Software. SMARCA2/4 protein levels were normalised to GAPDH. […] Where applicable, curves were fitted using a 4-parametric logistic model.

[2] = biological target: T2, SMARCA2/4 (Homo sapiens, UniProt P51531); assay: as above; format: cell-based; conditions: for K (one phase exponential decay) / Tau (one phase exponential decay): CHX
T2 construct: endogenous in cells; host or cells: HCT116, RKO
T2 sequence (P51531 whole entry): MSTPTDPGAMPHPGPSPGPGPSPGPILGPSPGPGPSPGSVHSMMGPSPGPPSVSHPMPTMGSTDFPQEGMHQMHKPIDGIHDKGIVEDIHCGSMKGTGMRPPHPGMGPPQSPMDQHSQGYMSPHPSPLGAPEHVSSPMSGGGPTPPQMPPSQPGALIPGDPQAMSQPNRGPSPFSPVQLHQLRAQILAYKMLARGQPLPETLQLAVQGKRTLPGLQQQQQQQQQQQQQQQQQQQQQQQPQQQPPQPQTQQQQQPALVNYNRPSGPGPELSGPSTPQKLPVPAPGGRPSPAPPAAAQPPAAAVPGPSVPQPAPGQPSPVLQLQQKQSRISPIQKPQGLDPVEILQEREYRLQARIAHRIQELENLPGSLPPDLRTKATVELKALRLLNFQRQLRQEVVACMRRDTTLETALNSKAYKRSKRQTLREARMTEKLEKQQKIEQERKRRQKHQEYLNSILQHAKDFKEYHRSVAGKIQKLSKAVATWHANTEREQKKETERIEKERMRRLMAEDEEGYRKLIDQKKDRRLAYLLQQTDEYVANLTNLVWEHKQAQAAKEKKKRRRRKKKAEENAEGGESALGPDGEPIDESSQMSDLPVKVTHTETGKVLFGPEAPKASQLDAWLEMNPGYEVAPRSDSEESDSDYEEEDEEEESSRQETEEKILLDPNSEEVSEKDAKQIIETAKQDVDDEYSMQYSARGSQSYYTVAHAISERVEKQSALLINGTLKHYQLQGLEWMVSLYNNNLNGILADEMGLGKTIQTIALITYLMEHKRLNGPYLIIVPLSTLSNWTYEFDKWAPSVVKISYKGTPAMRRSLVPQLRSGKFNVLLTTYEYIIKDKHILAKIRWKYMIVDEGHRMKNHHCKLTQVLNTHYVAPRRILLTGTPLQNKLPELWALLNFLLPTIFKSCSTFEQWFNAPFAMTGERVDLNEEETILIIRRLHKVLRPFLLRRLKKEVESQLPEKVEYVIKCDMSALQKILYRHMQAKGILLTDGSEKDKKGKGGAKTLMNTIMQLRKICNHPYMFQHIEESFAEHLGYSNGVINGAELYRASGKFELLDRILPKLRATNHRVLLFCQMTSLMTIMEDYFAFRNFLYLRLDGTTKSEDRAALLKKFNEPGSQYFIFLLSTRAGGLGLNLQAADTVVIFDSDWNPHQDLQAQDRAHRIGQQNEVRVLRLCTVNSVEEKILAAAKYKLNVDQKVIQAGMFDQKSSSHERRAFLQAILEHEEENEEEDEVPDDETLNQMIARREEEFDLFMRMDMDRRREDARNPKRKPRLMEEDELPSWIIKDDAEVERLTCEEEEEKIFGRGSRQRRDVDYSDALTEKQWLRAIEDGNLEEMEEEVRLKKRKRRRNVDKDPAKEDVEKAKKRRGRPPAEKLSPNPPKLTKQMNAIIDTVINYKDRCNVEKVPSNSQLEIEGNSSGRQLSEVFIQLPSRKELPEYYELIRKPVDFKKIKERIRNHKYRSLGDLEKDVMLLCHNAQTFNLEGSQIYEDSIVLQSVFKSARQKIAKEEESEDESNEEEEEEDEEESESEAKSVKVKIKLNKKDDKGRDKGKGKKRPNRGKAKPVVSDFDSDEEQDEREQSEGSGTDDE
Protocol: as §1

C[C@@H]1C[C@@H]([C@H](O)CC2CC(=O)NC(=O)C2)C(=O)[C@@H](C)C1 [CHX]
K (one phase exponential decay) ([1]; HCT116, SM4): 0.01934 | Tau (one phase exponential decay) ([1]; HCT116, SM4): 51.7 h | fraction protein remaining ([1]; HCT116, SM4, Time CHX 1 h): 0.9048 and 0.6354 and 0.681 | fraction protein remaining ([1]; HCT116, SM4, Time CHX 2 h): 1.063 and 0.7806 and 0.7981 | fraction protein remaining ([1]; HCT116, SM4, Time CHX 6 h): 0.982 and 0.7891 and 0.769 | fraction protein remaining ([1]; HCT116, SM4, Time CHX 18 h): 0.6017 and 0.6088 and 0.5084 | fraction protein remaining ([1]; HCT116, SM4, Time CHX 20 h): 0.6375 and 0.6135 and 0.453 | fraction protein remaining ([1]; HCT116, SM4, Time CHX 24 h): 0.6439 and 0.582 and 0.7075 | K (one phase exponential decay) ([1]; RKO, SM4): 0.05848 | Tau (one phase exponential decay) ([1]; RKO, SM4): 17.1 h | fraction protein remaining ([1]; RKO, SM4, Time CHX 1 h): 0.6419 and 0.7642 and 0.7888 | fraction protein remaining ([1]; RKO, SM4, Time CHX 2 h): 0.6538 and 0.6196 and 0.6177 | fraction protein remaining ([1]; RKO, SM4, Time CHX 6 h): 0.4106 and 0.4086 and 0.4599 | fraction protein remaining ([1]; RKO, SM4, Time CHX 18 h): 0.3137 and 0.4693 and 0.3349 | fraction protein remaining ([1]; RKO, SM4, Time CHX 20 h): 0.3111 and 0.4007 and 0.3018 | fraction protein remaining ([1]; RKO, SM4, Time CHX 24 h): 0.1564 and 0.2093 and 0.1216 | K (one phase exponential decay) ([2]; HCT116, SM2): 0.01756 | Tau (one phase exponential decay) ([2]; HCT116, SM2): 56.94 h | fraction protein remaining ([2]; HCT116, SM2, Time CHX 1 h): 0.9134 and 0.9119 and 0.8363 | fraction protein remaining ([2]; HCT116, SM2, Time CHX 2 h): 1.19 and 0.984 and 1.003 | fraction protein remaining ([2]; HCT116, SM2, Time CHX 6 h): 1.2436 and 0.9973 and 0.8745 | fraction protein remaining ([2]; HCT116, SM2, Time CHX 18 h): 0.8497 and 0.6816 and 0.6174 | fraction protein remaining ([2]; HCT116, SM2, Time CHX 20 h): 0.8836 and 0.7383 and 0.515 | K (one phase exponential decay) ([2]; RKO, SM2): 0.03021 | Tau (one phase exponential decay) ([2]; RKO, SM2): 33.1 h | fraction protein remaining ([2]; RKO, SM2, Time CHX 1 h): 0.6694 and 0.8157 and 0.6659 | fraction protein remaining ([2]; RKO, SM2, Time CHX 2 h): 0.8737 and 0.9723 and 0.8342 | fraction protein remaining ([2]; RKO, SM2, Time CHX 6 h): 0.9472 and 0.9944 and 0.8492 | fraction protein remaining ([2]; RKO, SM2, Time CHX 18 h): 0.7207 and 0.4914 and 0.6074 | fraction protein remaining ([2]; RKO, SM2, Time CHX 20 h): 0.6704 and 0.4369 and 0.5438

Reference: article PMC9551036, “A selective and orally bioavailable VHL-recruiting PROTAC achieves SMARCA2 degradation in vivo” (Nature Communications, 2022)
